Entries after “also recorded” stand apart in the source; their conditions may differ.
Tests used:
[1] = Cocaine interaction crossover study: pharmacokinetics
Experimental: This was a double-blind, placebo-controlled, randomized, crossover study of non-treatment-seeking subjects with cocaine use disorder (CUD). […] On the last day of each dosing week, subjects received 40 mg IV cocaine. Primary outcomes were safety and pharmacokinetics (PK).
• Subjects: Non-treatment seeking subjects with cocaine use disorder, ages 21-55 • Design: Single center, randomized, double-blind (DB), placebo-controlled (PLB), 2-period crossover design • Dosing: • One week of dosing with MET/OX (EMB-001) and one week of placebo, separated by one-week washout (randomized, DB, counterbalanced) • 40 mg IV cocaine & saline infusions on 7th day of dosing of MET/OX and placebo • Dose of MET/OX: 720 mg MET & 24 mg OX, BID • Primary Objective: Safety of MET/OX when co-administered with cocaine • Secondary Objectives: • Effects of MET/OX on PK of cocaine • Effects of cocaine on PK of MET/OX • Exploratory Objective: • Effects of MET/OX on measures of craving and subjective effects produced by cocaine

adult male Wistar rats [2] = test: Intravenous cocaine self-administration under a multiple, alternating schedule of food reinforcement and cocaine self-administration; assay type: in vivo, rat
Experimental: Adult male Wistar rats were trained under a multiple, alternating schedule of cocaine and food self-administration. This schedule consisted of alternating periods of cocaine access and food reinforcement. In some instances, as described further below, three doses of cocaine (0.125, 0.25, or 0.50 mg/kg/infusion) were tested. Rats were also periodically trained with saline substitution (cocaine extinction) and food extinction during the same session.
In our model, rats were exposed to alternating 15-minute periods of access to cocaine self-administration and food reinforcement. Food was used to control for potential nonspecific, ataxis effects of the drugs and combinations.
More specifically, adult male Wistar rats were implanted with chronic jugular catheters. Following recovery from surgery, the rats were trained to respond under a multiple, alternating schedule of food reinforcement and cocaine self-administration. Food-maintained responding was used to control for the non-specific motor effects of the various treatments. During the food component of the schedule, the stimulus light located above the food response lever was illuminated to indicate the availability of food reinforcement. […] A 25-second timeout followed the delivery of each food pellet. During this timeout, the stimulus light was darkened and responses on the food lever were counted but had no scheduled consequences. Responding on the other (cocaine) lever during the food component also had no scheduled consequences. […] Following 15 minutes of access to food, all stimulus lights in the chamber were darkened for a 1-minute timeout. Following the timeout, the stimulus light above the cocaine response lever was illuminated to indicate the availability of cocaine (0.125, 0.25, or 0.5 mg/kg/infusion). […] A 20-second timeout period followed each infusion. […] After 15 minutes of access to cocaine and a 1-minute timeout, the rats were again allowed 15 minutes access to the food component of the schedule. Access to food and cocaine alternated in this manner every 15 minutes during the two hour behavioral sessions so that each rat was exposed to food and cocaine for four 15-minute periods each. Each behavioral session began with 15 minutes access to either food or cocaine, and this alternated daily. Stable baselines of responding were established when the total number of cocaine and food presentations, as well as the number of presentations during each of the four exposures each session, varied less than 10% for three consecutive sessions. At least three different doses of cocaine (e.g., 0.125, 0.25, and 0.5 mg/kg/infusion) were tested. Rats were first trained to self-administer 0.25 mg/kg/infusion, our standard dose of cocaine. When responding stabilized, the dose was changed to 0.125 or 0.5 mg/kg/infusion as appropriate.
Once stable baselines of responding were obtained, dose-response curves for the various compounds were individually generated for each rat. Rats were treated with each dose at least twice with a minimum of two days of baseline cocaine self-administration interspersed between each test. Each group of rats was tested with only two of the test compounds to minimize potential carryover effects. […] This rationale guided the selection of the doses of each of the compounds in the combination studies. Each experimental group consisted of between 8 and 10 rats.

adult male Wistar rats [3] = test: Cue-induced reinstatement of extinguished cocaine seeking; assay type: in vivo, rat; conditions: for reinstatement of extinguished cocaine seeking: pretreatment with the drug alone, general statement
Experimental: The experiments described herein were designed to investigate whether or not drug combinations identified as effective in reducing cocaine self-administration would also block the ability of conditioned cues to reinstate extinguished cocaine-seeking behavior. Adult male Wistar rats were implanted with chronic jugular catheters and trained to self-administer cocaine (0.25 mg/kg/infusion) by pressing one of the response levers in the experimental chamber (i.e., the “active” or “cocaine” lever) under a fixed-ratio four (FR4) schedule of reinforcement during daily 2-hour sessions conducted 5 days per week. At the start of each session, both levers were extended into the chamber and the stimulus light above the active lever was illuminated to indicate the availability of cocaine. […] A 20-second timeout period followed each infusion. The stimulus light above the active lever and the house light and tone compound stimulus were extinguished during the timeout period, and the light above the active lever was illuminated once the timeout ended. When responding on the active lever varied less than 20% for two consecutive days, the response requirement was increased to FR2. When similar stability was observed under the FR2 schedule or reinforcement, the response requirement was increased to the final ratio of four. The criteria for stable responding under the FR4 schedule of reinforcement was a minimum of 10 days of exposure to this schedule that concluded with at least three consecutive days when responding varied by less than 10%. […] Once stable cocaine self-administration was observed, rats were exposed to extinction; the rats were placed into the behavioral chambers, but responding on the “cocaine” (active) lever produced no programmed consequences. Extinction training continued until responding decreased to less than 20% of baseline self-administration. Then reinstatement testing commended. The rats were placed into the experimental chambers, both response levers were extended into the chamber, and the stimulus light above the “active” lever was illuminated as during self-administration training. […] Responding on the “active” lever during reinstatement testing was taken as an index of cocaine-seeking behavior. Each experimental group consisted of 8 to 10 rats.

male Wistar rats [4] = test: Cocaine self-administration following adrenalectomy, with plasma CORT and ACTH; assay type: in vivo, rat
Experimental: Subjects: Male Wistar rats were housed in an AALAC-approved animal care facility and maintained at 85-90% of their free-feeding body weights. These rats were on a reversed 12-hour light, 12-hour dark cycle from the beginning of the experimental procedures.
Catheter surgery: A chronic indwelling jugular catheter (0.012 in i.d.×0.025 in o.d., silicone tubing) was implanted in each rat under pentobarbital anesthesia (50 mg/kg ip) with methyl atropine nitrate pretreatment (10 mg/kg ip). The animals were injected with sterile penicillin G procaine suspension (75,000 units, im) immediately before surgery and allowed 5-7 days to recover.
Adrenalectomy surgery: Animals were anesthetized with pentobarbital (50 mg/kg ip) with methyl atropine nitrate pretreatment (10 mg/kg ip). The adrenal glands were located through an incision and removed. The animals were injected with sterile penicillin G procaine suspension (75,000 units, im) and allowed to recover from surgery for 7 days. After ADX, the rats received drinking water containing 0.9% saline and 1.0% sucrose. Animals in the SHAM group received the same surgery except that the adrenal glands were not removed. They continued to receive tap water to drink.
Equipment: Sound-attenuating operant conditioning chambers (Med-Associates, Inc.) were equipped with two response levers and a stimulus light located directly above each lever. A food pellet dispenser was located between the levers. […] An IBM-compatible personal computer and interface system was used to program the procedure and collect the experimental data.
Alternating Schedule of Cocaine and Food Reinforcement: Following recovery from catheter surgery, the rats were trained to respond under a multiple, alternating schedule of food reinforcement and cocaine self-administration. […]
Hormone Measurements: Blood was collected via the implanted catheters at the end of the behavioral test sessions for the measurement of plasma CORT and adrenocorticotropin releasing hormone (ACTH). […] Plasma CORT and ACTH (ng/ml) were subsequently determined by radioimmunoassay.

male Wistar rats [5] = test: Forced Swim Test (FST), animal model of depression
[6] = rat, in vivo
Experimental: Adult male Wistar rats (90 to 120 days old) were implanted with chronic, indwelling jugular catheters and were allowed to recover from surgery. […] Thirty minutes following the drug combination or vehicle injection, the rats received intravenous injections of cocaine (0.25 mg/kg/infusion) every 2 minutes for 1 hour. After the final injection of cocaine, blood was collected from the catheter for the analysis of cocaine and its metabolites ecgonine methyl ester and benzoylecgonine. […] All drug concentrations were determined using GCMS procedures.

Wistar-derived male rats = test: Intravenous nicotine self-administration, fixed-ratio schedule (FR1, TO-20 s); assay type: in vivo, rat
Experimental: Animals: Wistar-derived male rats (250-300 g) were purchased from Harlan Laboratories (Livermore, Calif.), housed in groups of two, and maintained in a temperature-controlled environment on a 12 h:12 h light cycle. Before testing, animals were provided free access to food and water during a one-week habituation period, and were handled daily for several days to desensitize them to handling stress. Each rat included in the data analysis received all treatments in order to obtain reliable estimates of drug effects and decrease the impact of inter-animal variability. Animals were handled, housed, and sacrificed in accord with the current NIH guidelines and all applicable local, state, and federal regulations and guidelines.
Varenicline-HCl (Ontario Chemicals), at 1 mg/kg (expressed as free base), was used as a positive control and administered subcutaneously. Nicotine hydrogen tartrate (Sigma Aldrich) was dissolved in isotonic saline at 0.3 mg/mL (expressed as free base), adjusted to pH 7.0, and diluted to deliver 0.03 mg/kg/infusion. All test compounds were administered 30 minutes prior to nicotine self-administration sessions in a volume of 1 mL/kg.
Apparatus: Food training and nicotine self-administration took place in 8 standard Coulbourn™ operant conditioning chambers. Each chamber was housed in a sound-attenuating chamber. […]

[7] = smoking cessation (Nides et al. 2006); cited from earlier work
[8] = after 40 mg IV cocaine, + EMB-001
[9] = after 40 mg IV cocaine, + Placebo
[10] = high dose of the drug alone, ip
[11] = low, ineffective dose of the drug alone, ip
[12] = pretreatment with the drug alone, general statement

CN1[C@H]2CC[C@@H]1[C@@H](C(=O)O)[C@@H](OC(=O)c1ccccc1)C2 [Benzoylecgonine, benzoylecgonine]
AUC 0-∞ [1, 8]: 3080 ± 689 ng·h/mL
Cmax [1, 8]: 198 ± 55 ng/mL
AUC 0-∞ [1, 9]: 2970 ± 720 ng·h/mL
Cmax [1, 9]: 199 ± 45 ng/mL

CCCCN(CC)c1nc(C)nc2c1c(C)cn2-c1c(C)cc(C)cc1C [CP-154,526]
cocaine self-administration (number of cocaine infusions) (adult male Wistar rats [2]; [10]): reduced cocaine self-administration
food-maintained responding (adult male Wistar rats [2]; [10]): without affecting food-maintained responding
cocaine self-administration (number of cocaine infusions) (adult male Wistar rats [2]; [11]): did not significantly affect
food-maintained responding (adult male Wistar rats [2]; [11]): did not significantly affect
cocaine self-administration (adult male Wistar rats [2]; [12]): decrease
reinstatement of extinguished cocaine seeking (adult male Wistar rats [3]): decrease

COC(=O)[C@@H]1[C@H]2CC[C@@H](C[C@@H]1O)N2C [Ecgonine Methyl Ester, ecgonine methyl ester]
AUC 0-∞ [1, 8]: 244 ± 50 ng·h/mL
Cmax [1, 8]: 20.5 ± 3.7 ng/mL
AUC 0-∞ [1, 9]: 234 ± 45 ng·h/mL
Cmax [1, 9]: 21.5 ± 3.7 ng/mL

Cc1nnc2n1-c1ccc(Cl)cc1C(c1ccccc1)=NC2 [alprazolam]
cocaine self-administration (number of cocaine infusions) (adult male Wistar rats [2]; [10]): reduced cocaine self-administration
food-maintained responding (adult male Wistar rats [2]; [10]): without affecting food-maintained responding
cocaine self-administration (number of cocaine infusions) (adult male Wistar rats [2]; [11]): did not significantly affect
food-maintained responding (adult male Wistar rats [2]; [11]): did not significantly affect
cocaine self-administration (adult male Wistar rats [2]; [12]): decrease
reinstatement of extinguished cocaine seeking (adult male Wistar rats [3]): decrease

CC(=O)N1CCN(c2ccc(OCC3COC(Cn4ccnc4)(c4ccc(Cl)cc4Cl)O3)cc2)CC1 (stereo not drawn) [ketoconazole]
minimally effective dose (reduces cocaine self-administration by at least 50% without affecting food-maintained responding) (adult male Wistar rats [2]; drug alone): 25 mg/kg
cocaine self-administration (number of cocaine infusions) (adult male Wistar rats [2]; [11]): no effect; also recorded: did not significantly affect
food-maintained responding (adult male Wistar rats [2]; [11]): no effect; also recorded: did not significantly affect
cocaine self-administration (adult male Wistar rats [2]; [12]): decrease
reinstatement of extinguished cocaine seeking (adult male Wistar rats [3]): decrease

CC(C)(c1cccnc1)C(O)c1cccnc1 (stereo not drawn) [metyrapol]
AUC 0-∞ ([1]; human, in vivo): 5480 ± 4840 ng·h/mL
Cmax ([1]; human, in vivo): 1850 ± 1570 ng/mL
food-maintained responding (adult male Wistar rats [2]; 25, 50, 100 and 150 mg/kg ip 30 min before): not significantly affected except at the highest doses
cocaine self-administration (adult male Wistar rats [2]; 25, 50, 100 and 150 mg/kg ip 30 min before, cocaine 0.125, 0.25, 0.5 mg/kg/infusion): dose dependently decreased

CC(C)(C(=O)c1cccnc1)c1cccnc1 [metyrapone]
AUC 0-∞ ([1]; human, in vivo): 900 ± 492 ng·h/mL
Cmax ([1]; human, in vivo): 429 ± 234 ng/mL
blocking cocaine self-administration following adrenalectomy compared to pre-adrenalectomy values (male Wistar rats [4]; MET 50, OX 5, OX 10 mg/kg and combinations): as effective, and possibly even more effective
plasma ACTH (male Wistar rats [4]; before adrenalectomy): not changed
plasma corticosterone (male Wistar rats [4]; before adrenalectomy): not changed
immobility in the FST (male Wistar rats [5]; acute and chronic administration, alone and in combination, oxazepam 5 or 10, metyrapone 25 or 50 mg/kg): effective in reducing immobility
immobility time (male Wistar rats [5]; chronic, metyrapone 50 mg/kg alone (Met50 group)): showed a lessening of immobility time
group means of immobility time relative to vehicle (tolerance) (male Wistar rats [5]; chronically treated groups that received only Ox or Met): equal to or exceeded the vehicle
plasma concentration in the presence of cocaine [6]: did not affect
influence on plasma concentration of the other drug ([6]; ip): did not influence
cocaine self-administration (number of cocaine infusions) (adult male Wistar rats [2]; [10]): reduced cocaine self-administration
food-maintained responding (adult male Wistar rats [2]; [10]): without affecting food-maintained responding
cocaine self-administration (number of cocaine infusions) (adult male Wistar rats [2]; [11]): did not significantly affect
food-maintained responding (adult male Wistar rats [2]; [11]): did not significantly affect
plasma corticosterone (adult male Wistar rats [2]; pretreatment with the drug alone): significant dose-related decreases
cocaine self-administration (adult male Wistar rats [2]; [12]): decrease; also recorded: significant dose-related decreases
cue-induced reinstatement (responding on the active lever) (adult male Wistar rats [3]; chronic, 50 mg/kg, ip, once per day for 14 days): reduced cocaine seeking to levels seen when only saline was delivered
reinstatement of extinguished cocaine seeking (adult male Wistar rats [3]): decrease

NCc1cc(=O)[nH]o1 [muscimol]
cocaine self-administration (number of cocaine infusions) (adult male Wistar rats [2]; [10]): reduced cocaine self-administration
food-maintained responding (adult male Wistar rats [2]; [10]): without affecting food-maintained responding
cocaine self-administration (number of cocaine infusions) (adult male Wistar rats [2]; [11]): did not significantly affect
food-maintained responding (adult male Wistar rats [2]; [11]): did not significantly affect

c1cnc2cc3c(cc2n1)[C@@H]1CNC[C@H]3C1 [varenicline]
nicotine infusions over the 1-hour test session (Wistar-derived male rats; 1 mg/kg sc, reduced from 15.4±1.0): 7.7±1.2
reduction of nicotine self-administration, varenicline compared with the metyrapone:oxazepam combination (Wistar-derived male rats; fixed-ratio schedule): comparable to those seen with the lowest dose of the combination
quit rates after one year [7]: 14%

Reference: patent US20200360400A1, “COMPOSITIONS AND METHODS FOR THE TREATMENT OF ADDICTION, PSYCHIATRIC DISORDERS, AND NEURODEGENERATIVE DISEASE” (Embera NeuroTherapeutics, Inc., priority 2017, published 2020)
